System: adiponectin mRNA in epididymis adipose cells
Test: Adiponectin mRNA level in isolated epididymis adipose cells (RT-PCR, gel densitometry)
Type: cell-based, Wistar male rat
Conditions: for mRNA level: adiponectin mRNA, control (DMSO) defined as 1, cultured 24 hours at 37° C.; for adiponectin mRNA level in adipose tissue (result in words): conclusion from FIG. 1 and Table 5, 100 μM or 250 μM vs DMSO control
Method: A Wistar male rat (body weight of 160 g) was sacrificed and its epididymis adipose tissues were excised. The epididymis adipose tissues were placed in 0.5% bovine serum albumin (BSA)/30 mM HEPES/200 nM adenosine/Krebs Ringer bicarbonate buffer(BSA-KRBH) containing 1176 units/mL of collagenase (Sigma, type II), and allowed to stand at 37° C. for 90 minutes (hereunder, 0.5% BSA/30 mM HEPES/200 nM adenosine/Krebs Ringer bicarbonate buffer is referred to as BSA-KRBH). Adipose cells were isolated from the connective tissue by the above-described operation. The isolated adipose cells were then washed with BSA-KRBH four times, and the thus-obtained adipose cells were suspended in a BSA-KRBH culture medium.
Subsequently, to the thus-obtained suspension, a solution prepared by dissolving cyanidin (Cy; manufactured by Funakoshi Co., Ltd.) or cyanidin 3-O-β-D-glucoside (hereinafter, referred to as “cyanidin 3-glucoside”)(C3G; manufactured by Funakoshi Co., Ltd.) in DMSO was added in such a manner that the final concentration of cyanidin or cyanidin 3-glucoside was 100 μM or 250 μM. The resulting solutions were cultured under 5% CO2 at 37° C. for 24 hours, and the adipose cells were then collected.
Total RNAs were extracted from the thus-obtained adipose cell using an RNA extracting reagent (ISOGEN, manufactured by Nippon Gene Co., Ltd.) by following the instruction manual (http://www.nippongene.jp/pages/products/extraction/isogen/genol. html). Using the total RNAs as a template, a reverse transcription reaction was conducted at 37° C. for 120 minutes, and the RNAs were amplified by 20 cycles of PCR (RT-PCR (Reverse transcription-polymerase chain reaction) method). Specifically, 2.5 μg of total RNAs was subjected to reverse transcription in a buffer solution comprising oligo dT primer, 1.3 mM dNTP (deoxynucleoside triphosphates, GIBCO BRL, Grand Island, N.Y.), 10 mM DTT (dithiothreitol, GIBCO BRL), and 200 U of RNase inhibitor (GIBCO BRL) using 200 U of Moloney murine leukemia virus reverse transcriptase (GIBCO BRL) at 37° C. for 120 minutes, then allowed to stand at 94° C. for 2 minutes, and the reaction was terminated. The thus-generated cDNAs were amplified in a 0.01% Tween 20/0.2 mM dNTP/2 mM MgCl2/75 mM Tris buffer (pH 8.8) containing 1 μM 5′-primer([…]) and 3′-primer([…]), using 1.5 U of Taq DNA polymerase (MBI Fermentas, Lithuania) by repeating 20 cycles of PCR (each cycle comprised a denaturation step at 94° C. for 30 seconds, an annealing step. at 58° C. for 30 seconds, and an extension reaction step at 72° C. for 30 seconds), and then allowed to stand at 72° C. for 10 minutes.
The RT-PCR product (502 bp) was applied to a 1% agarose gel with DNA size markers, and subjected to electrophoresis in a Tris-Acetate-EDTA buffer at 100 V for about 30 minutes. After conducting electrophoresis, the gel was dipped in an ethidium bromide solution, shaken for 15 minutes, and then stained. Subsequently, the fluorescence intensity of the gel was measured using a gel analysis program (ATTO Lane Analyzer 10H Software Densitograph provided by Atto Corporation).
Note that, in FIG. 1, the control is epididymis adipose cells to which only DMSO was added.

Structure (SMILES) | mRNA level (100 μM) | mRNA level (250 μM) | adiponectin mRNA level in adipose tissue (result in words)
OCC1OC(Oc2cc3c(O)cc(O)cc3[o+]c2-c2ccc(O)c(O)c2)C(O)C(O)C1O [Cyanidin 3-glucoside, cyanidin 3-O-β-D-glucoside] | 2.7 | 2.1 | increased adiponectin mRNA level
Oc1cc(O)c2cc(O)c(-c3ccc(O)c(O)c3)[o+]c2c1 [Cyanidin, cyanidin] | 2.1 | 2.2 | increased adiponectin mRNA level

Source: patent US20090082285A1, “Adiponectin expression promoter” (SAN-EI GEN F.F.I., INC., priority 2003, published 2009)
